One assay deals with FGFR1 active kinase (Homo sapiens, UniProt P11362). The assay is described as follows: FGFR Kinase assay - Caliper. For FGFR Kinase assay - Caliper, IC50: 408 µM ATP. It counts as biochemical.
In assay [1] the target is T1, His6-tagged FGFR kinase domain (Homo sapiens, UniProt P11362, C488A/C584S).
T1 construct: FGFR kinase domain (amino acids 458-765, C488A, C584S) N-terminally fused to a His6-tag and TEV cleavage site; His6-tag plus linker and TEV cleavage site (printed as X1); made in house
T1 sequence (P11362 458-765 C488A/C584S): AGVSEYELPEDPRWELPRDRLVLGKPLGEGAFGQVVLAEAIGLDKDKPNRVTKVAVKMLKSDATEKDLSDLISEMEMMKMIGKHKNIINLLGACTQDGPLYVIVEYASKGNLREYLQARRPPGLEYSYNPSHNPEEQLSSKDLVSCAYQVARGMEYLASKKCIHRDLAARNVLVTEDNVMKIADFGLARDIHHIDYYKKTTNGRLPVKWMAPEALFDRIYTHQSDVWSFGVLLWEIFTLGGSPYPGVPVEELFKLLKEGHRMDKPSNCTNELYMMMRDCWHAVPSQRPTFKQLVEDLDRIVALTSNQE
The assay is described as follows: FGFR Kinase assay - Elisa. It counts as biochemical. The protocol:
To determine inhibition of FGFR activity, kinase assays were conducted using ELISA (Enzyme-Linked Immunosorbent Assay) technology.
Kinase activity assays were performed in 384-well polypropylene plates (Matrix, Catalogue No. 4311. Matrix are part of Thermo Fisher Scientific, 22 Friars Drive, Hudson, N.H. 03051, USA) with a total volume of 40 μl in each well. Each well was coated with 2 μg of polyEAY substrate (Sigma, Catalogue No. P3899) at 4° C. overnight. The plates were then washed once with 100 μl PBS and once with 100 μl 50 mM HEPES (pH 7.4) prior to the addition of the kinase assay reagents. Reactions contained His6-tagged FGFR kinase domain (FGFR kinase domain (amino acids 458-765, C488A, C584S) N-terminally fused to a His6-tag and TEV cleavage site encoded by the following sequence; [[…]]. The final alanine denotes the start of the FGFR protein sequence. The resultant protein was expressed and purified based on Mohammadi et al, Cell Vol 86, 577-587 (1996). Each kinase reaction contained 0.1 ng His6-tagged FGFR kinase domain, 50 mM HEPES (pH 7.4), 0.1 mM Na3VO4, 0.1 mM DTT, 0.05% (v/v) Triton X100, 20 mM MgCl2, 160 μM ATP. Various concentrations of test compounds were each added in 5% (v/v) DMSO to yield a final assay DMSO concentration of 1.25% (v/v). The kinase reactions were incubated at room temperature for 45 minutes and stopped by washing the plate three times with 100 μl PBS plus 0.05% Tween. 40 μl of a one in 10000 dilution of 4G10-HRP antibody (Upstate Biotechnology, UBI 16-105. Upstate are part of Millipore Corporation, 290 Concord Road, Billerca Mass. 01821 USA) made up in 0.5% (w/v) BSA/PBS was then added to each well and the plates incubated at room temperature for one hour. Following this, the plates were then washed repeatedly with 100 μl PBS plus 0.05% Tween to remove all traces of the antibody solution. 40 μl of 50 μg/ml 3,3′,5,5′-Tetramethylbenzidine (Sigma, Catalogue No. T2885), 0.05M phosphate-citrate buffer, containing 0.03% sodium perborate was added to each well and the plates incubated at room temperature for twelve minutes. The colour reaction was stopped by the addition of 20 μl 2M H2SO4 and the plates read at 450 nm on a Spectrafluor Plus (Tecan Trading AG, Switzerland). In the assay, compounds were tested at a range of concentrations.
Percentage inhibition at 1 uM, as expressed herein, is a calculated value based on the curve fit that was generated experimentally. From the fitted curve plot, the effect of compound at a concentration of 1 uM was calculated as a percentage inhibition. The IC50 value is the concentration of test compound that inhibits 50% of FGFR kinase activity.

Where [2] appears, read: FGFR1 […], 408 uM ATP, mean of n as printed, read-out: FGFR Kinase assay - Caliper, IC50.
The mark [3] stands for this setting: FGFR inhibition test, Caliper, read-out: Activity class (FGFR Kinase assay - Caliper).
The mark [4] stands for this setting: FGFR inhibition test, Elisa, read-out: Activity class (FGFR Kinase assay - Elisa).

The text below walks through data of patent US10301267B2, “Compounds” (AstraZeneca AB, priority 2006, dated 2019).

Each structure is given as a SMILES string. pIC50: −log10 of the molar value. Where two headings read alike, the source gives them in different places.

FGFR1 active kinase, sequence (P11362 22-822): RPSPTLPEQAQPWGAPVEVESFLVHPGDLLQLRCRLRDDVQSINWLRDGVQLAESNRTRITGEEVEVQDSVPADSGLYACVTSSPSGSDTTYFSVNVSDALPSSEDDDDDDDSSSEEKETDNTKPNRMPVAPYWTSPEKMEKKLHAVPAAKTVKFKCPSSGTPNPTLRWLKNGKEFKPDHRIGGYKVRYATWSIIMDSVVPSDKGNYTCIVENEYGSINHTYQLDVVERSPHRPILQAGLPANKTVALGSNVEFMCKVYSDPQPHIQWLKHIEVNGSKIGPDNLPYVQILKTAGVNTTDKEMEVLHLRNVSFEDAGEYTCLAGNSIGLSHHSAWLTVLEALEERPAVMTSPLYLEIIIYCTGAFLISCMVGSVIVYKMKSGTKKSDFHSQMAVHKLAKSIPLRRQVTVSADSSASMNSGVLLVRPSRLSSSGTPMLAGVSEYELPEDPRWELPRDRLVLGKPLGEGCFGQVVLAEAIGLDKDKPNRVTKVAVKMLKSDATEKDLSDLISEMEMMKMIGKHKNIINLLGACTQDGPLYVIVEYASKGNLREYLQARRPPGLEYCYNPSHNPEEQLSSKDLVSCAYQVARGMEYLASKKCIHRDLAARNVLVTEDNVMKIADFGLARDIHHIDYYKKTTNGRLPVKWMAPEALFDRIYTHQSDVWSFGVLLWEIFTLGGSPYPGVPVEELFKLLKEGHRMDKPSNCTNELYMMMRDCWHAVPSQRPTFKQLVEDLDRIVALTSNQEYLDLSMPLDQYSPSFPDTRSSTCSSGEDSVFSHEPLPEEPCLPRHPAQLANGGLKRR

With `COc1ccc(C(=O)Nc2cc(CCc3cc(OC)cc(OC)c3)n[nH]2)cc1` [Example 3, N-[5-[2-(3,5-dimethoxyphenyl)ethyl]-2H-pyrazol-3-yl]-4-methoxy-benzamide], the pIC50 on FGFR1 active kinase (setting [2]) was 6.88; at FGFR1 active kinase (setting [3]), greater than 6.52; in assay [1] (setting [4]), greater than 6.52.
As to `COc1cc(CCc2cc(NC(=O)c3ccc(N4CCOCC4)cc3)[nH]n2)cc(OC)c1` [Example 4, N-[5-[2-(3,5-dimethoxyphenyl)ethyl]-2H-pyrazol-3-yl]-4-morpholin-4-yl-benzamide], the pIC50 at FGFR1 active kinase (setting [2]) is 7.17; at FGFR1 active kinase (setting [3]), greater than 6.52; in assay [1] (setting [4]), greater than 6.52.
With `COc1cc(CCc2cc(NC(=O)c3ccc(CN4CCC(F)CC4)cc3)[nH]n2)cc(OC)c1` [Example 5, N-[5-[2-(3,5-dimethoxyphenyl)ethyl]-2H-pyrazol-3-yl]-4-[(4-fluoropiperidin-1-yl)methyl]benzamide], the pIC50 at FGFR1 active kinase (setting [2]) was 7.20; at FGFR1 active kinase (setting [3]), greater than 6.52; in assay [1] (setting [4]) it was greater than 6.52.
Regarding `COCCOc1cccc(CCc2cc(NC(=O)c3ccc(N4CCN(C)CC4)cc3)[nH]n2)c1` [Example 6, N-[5-[2-[3-(2-methoxyethoxy)phenyl]ethyl]-2H-pyrazol-3-yl]-4-(4-methylpiperazin-1-yl)benzamide], the pIC50 at FGFR1 active kinase (setting [2]) is 7.24; at FGFR1 active kinase (setting [3]) it was greater than 6.52; in assay [1] (setting [4]), greater than 6.52.
Consider `COc1cc(COc2cc(NC(=O)c3ccc(N4CCN(C)CC4)cc3)[nH]n2)cc(OC)c1` [Example 12, N-[5-[(3,5-dimethoxyphenyl)methoxy]-2H-pyrazol-3-yl]-4-(4-methylpiperazin-1-yl)benzamide], for which the pIC50 is greater than 6.52 in assay [1] (setting [4]) and 7.22 in assay [1] (polyEAY substrate, 160 μM ATP, read-out: FGFR Kinase assay - Elisa, IC50).
`COc1cccc(CCc2cc(NC(=O)c3ccc(C)nc3)[nH]n2)c1` [Example 13, N-[5-[2-(3-Methoxyphenyl)ethyl]-2H-pyrazol-3-yl]-6-methyl-pyridine-3-carboxamide]: the pIC50 on FGFR1 active kinase (setting [2]) is 6.02; at FGFR1 active kinase (setting [3]), 6.00 to 6.52; in assay [1] (setting [4]), 6.00 to 6.52.
Take `COc1cccc(CCc2cc(NC(=O)c3ccc(OC)nc3)[nH]n2)c1` [Example 14, 6-Methoxy-N-[5-[2-(3-methoxyphenyl)ethyl]-2H-pyrazol-3-yl]pyridine-3-carboxamide]: the pIC50 at FGFR1 active kinase (setting [2]) is 6.21; on FGFR1 active kinase (setting [3]) it was 6.00 to 6.52; on FGFR1 active kinase (footnote example, read-out: FGFR Kinase assay - Caliper, value in table footnote), 6.21; in assay [1] (setting [4]) it was 6.00 to 6.52; in assay [1] (footnote example, read-out: FGFR Kinase assay - Elisa, value in table footnote), 6.14.
On to `COc1cccc(CCc2cc(NC(=O)c3ccc(S(C)(=O)=O)cc3)[nH]n2)c1` [Example 15, N-[5-[2-(3-Methoxyphenyl)ethyl]-2H-pyrazol-3-yl]-4-methylsulfonyl-benzamide], for which the pIC50 was 6.96 on FGFR1 active kinase (setting [2]), greater than 6.52 at FGFR1 active kinase (setting [3]) and greater than 6.52 in assay [1] (setting [4]).
In the case of `COc1cccc(CCc2cc(NC(=O)c3cnc(C)cn3)[nH]n2)c1` [Example 16, N-[5-[2-(3-Methoxyphenyl)ethyl]-2H-pyrazol-3-yl]-5-methyl-pyrazine-2-carboxamide], the pIC50 is 6.12 at FGFR1 active kinase (setting [2]), 6.00 to 6.52 on FGFR1 active kinase (setting [3]) and 6.00 to 6.52 in assay [1] (setting [4]).
As to `C#CCNc1ccc(C(=O)Nc2cc(CCc3cccc(OC)c3)n[nH]2)nc1` [Example 17, N-[5-[2-(3-Methoxyphenyl)ethyl]-2H-pyrazol-3-yl]-5-(prop-2-ynylamino)pyridine-2-carboxamide], the results for the pIC50 (on FGFR1 active kinase (setting [2]); at FGFR1 active kinase (setting [3]); in assay [1] (setting [4])) were 6.18, 6.00 to 6.52 and 6.00 to 6.52, respectively.
As for `COc1cccc(CCc2cc(NC(=O)c3ccc(NC(C)=O)cc3)[nH]n2)c1` [Example 19, 4-Acetamido-N-[5-[2-(3-methoxyphenyl)ethyl]-2H-pyrazol-3-yl]benzamide], the pIC50 at FGFR1 active kinase (setting [2]) was 6.40; at FGFR1 active kinase (setting [3]), 6.00 to 6.52; in assay [1] (setting [4]), greater than 6.52.
Turning to `COc1cc(COc2cc(NC(=O)c3cnc(N4CCN(C)CC4)cn3)[nH]n2)cc(OC)c1` [Example 20, N-[5-[(3,5-Dimethoxyphenyl)methoxy]-2H-pyrazol-3-yl]-5-(4-methylpiperazin-1-yl)pyrazine-2-carboxamide], the values for the pIC50 (on FGFR1 active kinase (setting [2]); on FGFR1 active kinase (setting [3]); in assay [1] (setting [4])) were 7.34, greater than 6.52 and greater than 6.52, respectively.
